Reference: publication PMC12042267, “Expanding the Family of Monosubstituted 15-Membered Pyridine-Based Macrocyclic Ligands for Mn(II) Complexation in the Context of MRI” (Inorganic Chemistry, 2025)

Test: 1H relaxivity (relaxometry, NMRD profiles)
Format: physicochemical
Conditions: for r1 (relaxivity): 20 MHz, 0.47 T
Protocol: At 60 MHz, ^1H longitudinal (T1) and transverse (T2) relaxation times were measured with a Bruker Minispec MQ-60 NMR analyzer. The temperature was set to 25.0 °C and controlled with a circulating water bath. T1 and T2 values were determined, respectively, by using the inversion recovery method (180−τ–90°) and the Carl–Purcell–Meiboom–Gill (CPMG) spin–echo pulse sequence. […]
^1H NMRD profiles on aqueous solutions of MnL2 (cMn2+ = 0.98 mM; pH = 7.22) and MnL3 (cMn2+ = 0.96 mM; pH = 7.20) were recorded at 25 and 37 °C on a SMARTracer Fast Field Cycling NMR relaxometer (Stelar; 0.00024–0.24 T, 0.01–10 MHz ^1H Larmor frequency) and a WP80 NMR electromagnet adapted to variable-field measurements (Bruker; 0.47–1.88 T, 20–80 MHz ^1H Larmor frequency). The temperature was maintained by a gas flow and monitored by a VTC91 temperature control unit based on previous calibration with a Pt resistance temperature probe.

Compound | relaxivity (constant between pH 7 and 11) (1.41 T and 25 °C, pH 7 to 11) [mM^–1 s^–1] | r1 (relaxivity) (25 °C) [mM^–1 s^–1] | r1 (relaxivity) (25 °C, listed as [Mn(L2)(H2O)]^+) [mM^–1 s^–1] | r1 (relaxivity) (37 °C) [mM^–1 s^–1] | r1 (relaxivity) (25 °C, listed as [Mn(L3)(H2O)]^+) [mM^–1 s^–1]
O.[Mn+2].c1ccc(CN2CCOCCOCCNCc3cccc(n3)C2)nc1 [MnL2] | 2.62 | ~2.5 | 2.49 | 1.98 | –
O.[Mn+2].c1cc2nc(c1)CN(Cc1nc3ccccc3[nH]1)CCOCCOCCNC2 [MnL3] | – | ~2.5 | – | 2.24 | 2.77
